This passage reports Ki and EC50 results from patent US8501794B2, “Compounds as cannabinoid receptor ligands” (priority 2007, dated 2013).

Assay [1] concerns the target T1, human CB2 receptors (Homo sapiens, UniProt P34972).
T1 construct: expressed in transfected cells; host or cells: HEK293
Nature of the assay: human CB2 radioligand binding assay ([3H]CP-55,940 competition).

Assay [2] has as its target T2, rat CB2 (Rattus norvegicus, UniProt Q9QZN9).
T2 sequence (Q9QZN9 1-360): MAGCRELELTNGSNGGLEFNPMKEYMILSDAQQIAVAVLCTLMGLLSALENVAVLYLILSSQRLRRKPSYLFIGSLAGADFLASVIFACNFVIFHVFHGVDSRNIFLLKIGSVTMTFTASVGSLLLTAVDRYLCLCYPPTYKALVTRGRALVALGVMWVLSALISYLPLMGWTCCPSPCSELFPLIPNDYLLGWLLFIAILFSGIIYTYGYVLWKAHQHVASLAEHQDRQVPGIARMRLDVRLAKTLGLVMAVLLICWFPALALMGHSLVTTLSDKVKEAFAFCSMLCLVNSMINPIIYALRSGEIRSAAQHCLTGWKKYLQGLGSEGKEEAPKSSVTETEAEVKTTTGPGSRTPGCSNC
Nature of the assay: rat CB2 cyclase functional assay (HitHunter cAMP, HEK cells). It counts as cell-based. As to conditions: forskolin 18 μM. On the set-up: expressed in transfected cells; host or cells: HEK.

For assay [3], the target named is T2, rat CB2. Nature of the assay: rat CB2 radioligand binding assay ([3H]CP-55,940 competition). On the set-up: expressed in transfected cells; host or cells: HEK293.

T1 sequence (P34972 whole entry): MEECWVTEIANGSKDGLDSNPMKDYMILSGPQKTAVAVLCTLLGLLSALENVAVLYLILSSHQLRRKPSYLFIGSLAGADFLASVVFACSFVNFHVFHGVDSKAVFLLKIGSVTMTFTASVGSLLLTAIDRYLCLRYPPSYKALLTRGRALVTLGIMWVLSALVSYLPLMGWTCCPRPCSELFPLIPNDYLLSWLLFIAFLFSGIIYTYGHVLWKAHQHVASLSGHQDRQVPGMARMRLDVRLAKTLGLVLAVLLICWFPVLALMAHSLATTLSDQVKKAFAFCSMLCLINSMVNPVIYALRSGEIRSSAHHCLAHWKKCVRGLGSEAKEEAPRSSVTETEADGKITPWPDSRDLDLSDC

With `COc1ccc(Cl)cc1C(=O)/N=c1\sn(C(C)(C)C)cc1CC1CC1` [Example 8, N-[(5Z)-2-tert-butyl-4-(cyclopropylmethyl)isothiazol-5(2H)-ylidene]-5-chloro-2-methoxybenzamide], the Ki in assay [1] was found to be 4 nM; in assay [3], 1.1 nM. In addition, the EC50 in assay [2] is 1 nM.

For `COc1ccc(C(F)(F)F)cc1C(=O)/N=c1\sn(C(C)(C)C)cc1CC(C)C` [Example 143, N-[(5Z)-2-tert-butyl-4-isobutylisothiazol-5(2H)-ylidene]-2-methoxy-5-(trifluoromethyl)benzamide], the figures for the Ki in assay [1] and in assay [3] were 11 nM and 1.8 nM, respectively. The EC50 in assay [2] worked out at 0.1 nM.

For the molecule `CCCCc1cn(C(C)(C)C)s/c1=N\C(=O)C1CCC(C)(C(=O)O)C1(C)C` (stereo not drawn) [Example 105, 3-({[(5Z)-4-butyl-2-tert-butylisothiazol-5(2H)-ylidene]amino}carbonyl)-1,2,2-trimethylcyclopentanecarboxylic acid], the Ki was determined as 19 nM in assay [1] and 17 nM in assay [3]. For the same molecule, in assay [2], a half-maximal effect (EC50) was put at 0.11 nM.

Turning to `CCCCc1cn(C(C)(C)C)s/c1=N\C(=O)C1C(C)(C)C1(C)C` [Example 121, N-[(5Z)-4-butyl-2-tert-butylisothiazol-5(2H)-ylidene]-2,2,3,3-tetramethylcyclopropanecarboxamide], the inhibitory constant (Ki) in assay [1] was 0.8 nM; in assay [3] it was 0.52 nM. This molecule registered an EC50 in assay [2] of 0.33 nM.

For the molecule `COc1ccc(Cl)cc1C(=O)/N=c1\sn(C(C)(C)C)cc1CCC#N` [Example 19, N-[(5Z)-2-tert-butyl-4-(2-cyanoethyl)isothiazol-5(2H)-ylidene]-5-chloro-2-methoxybenzamide], the Ki is 44 nM in assay [1] and 7.1 nM in assay [3]. This molecule also gave an EC50 in assay [2] of 0.57 nM.

With `COc1ccc(Cl)cc1C(=O)/N=c1\sn(C(C)(C)C)cc1CC1CCCO1` (stereo not drawn) [Example 67, N-[(5Z)-2-tert-butyl-4-(tetrahydrofuran-2-ylmethyl)isothiazol-5(2H)-ylidene]-5-chloro-2-methoxybenzamide], the Ki in assay [1] was 32 nM; in assay [3], 3 nM. The EC50 in assay [2] came to 3.7 nM.

As for `COc1ccc(C(F)(F)F)cc1C(=O)/N=c1\sn(C(C)(C)C)cc1CCCC(C)=O` [Example 76, N-[(5Z)-2-tert-butyl-4-(4-oxopentyl)isothiazol-5(2H)-ylidene]-2-methoxy-5-(trifluoromethyl)benzamide], the Ki in assay [1] is 24 nM; in assay [3], 2.2 nM. This molecule yielded an EC50 in assay [2] of 0.13 nM.

With `COc1ccc(Cl)cc1C(=O)/N=c1\sn(C(C)(C)C)cc1CCCC(C)(F)F` [Example 86, N-[(5Z)-2-tert-butyl-4-(4,4-difluoropentyl)isothiazol-5(2H)-ylidene]-5-chloro-2-methoxybenzamide], the values for the Ki in assay [1] and in assay [3] were 4.4 nM and 0.64 nM, respectively. Besides, it took 0.12 nM to reach a half-maximal effect in assay [2] (EC50).

Take `CCCCc1cn(C(C)(C)C)s/c1=N\C(=O)[C@@H]1CC[C@](C)(C(=O)NCCO)C1(C)C` [Example 212, (1S,3R)—N^3-[(5Z)-4-butyl-2-tert-butylisothiazol-5(2H)-ylidene]-N^1-(2-hydroxyethyl)-1,2,2-trimethylcyclopentane-1,3-dicarboxamide]: the Ki worked out at 180 nM in assay [1] and 257 nM in assay [3]. In addition, the EC50 in assay [2] worked out at 6.2 nM.

In the case of `CCCCc1cn(C(C)(C)C)s/c1=N\C(=O)c1cc(C=O)ccc1OC` [Example 56, N-[(5Z)-4-butyl-2-tert-butylisothiazol-5(2H)-ylidene]-5-formyl-2-methoxybenzamide], the inhibition constant (Ki) in assay [1] is 11 nM; in assay [3], 1.2 nM. In addition, a half-maximal effect in assay [2] (EC50) was put at 0.076 nM.

With `COc1ccc(Cl)cc1C(=O)/N=c1\sn(C(C)(C)C)cc1CCCC(C)(C)O` [Example 80, N-[(5Z)-2-tert-butyl-4-(4-hydroxy-4-methylpentyl)isothiazol-5(2H)-ylidene]-5-chloro-2-methoxybenzamide], the Ki in assay [1] is 74 nM; in assay [3], 8.5 nM. This molecule also came in with a half-maximal effective concentration (EC50) in assay [2] of 0.046 nM.

On to `CCCCc1cn(C(C)(C)C)s/c1=N\C(=O)c1cc(Cl)ccc1OCCF` [Example 139, N-[(5Z)-4-butyl-2-tert-butylisothiazol-5(2H)-ylidene]-5-chloro-2-(2-fluoroethoxy)benzamide], for which the Ki in assay [1] turned out to be 5.5 nM; in assay [3] it was 2 nM. The molecule also showed an EC50 in assay [2] of 0.059 nM.

Consider `CCCCc1cn(C(C)(C)C)s/c1=N\C(=O)[C@@]1(C)CC[C@@H](C(=O)OCC)C1(C)C` [Example 176, Ethyl (1R,3S)-3-({[(5Z)-4-butyl-2-tert-butylisothiazol-5(2H)-ylidene]amino}carbonyl)-2,2,3-trimethylcyclopentanecarboxylate], for which the figures for the Ki in assay [1] and in assay [3] were 16 nM and 7 nM, respectively. The same molecule gave an EC50 in assay [2] of 1.1 nM.

With `COc1ccc(Cl)cc1C(=O)/N=c1\sn(C(C)(C)C)cc1COCC(F)F` [Example 91, N-[(5Z)-2-tert-butyl-4-[(2,2-difluoroethoxy)methyl]isothiazol-5(2H)-ylidene]-5-chloro-2-methoxybenzamide], the Ki in assay [1] amounted to 45 nM; in assay [3] it was 12 nM. Also, the EC50 in assay [2] came to 0.1 nM.

For the molecule `COc1ccc(Cl)cc1C(=O)/N=c1\sn(C(C)(C)C)cc1CCC1CCC1` [Example 36, N-[(5Z)-2-tert-butyl-4-(2-cyclobutylethyl)isothiazol-5(2H)-ylidene]-5-chloro-2-methoxybenzamide], the Ki was determined as 1.3 nM in assay [1] and 0.16 nM in assay [3]. The same molecule came in with an EC50 in assay [2] of 0.91 nM.

With `COc1ccc(C#N)cc1C(=O)/N=c1\sn(C(C)(C)C)cc1CC(C)C` [Example 145, N-[(5Z)-2-tert-butyl-4-isobutylisothiazol-5(2H)-ylidene]-5-cyano-2-methoxybenzamide], the Ki in assay [1] was found to be 58 nM; in assay [3], 6.1 nM. The concentration for a half-maximal effect (EC50) in assay [2] was 0.078 nM.

On to `CCCCc1cn(C(C)(C)C)s/c1=N\C(=O)C1=CC(=O)CC(C)(C)O1` [Example 125, N-[(5Z)-4-butyl-2-tert-butylisothiazol-5(2H)-ylidene]-2,2-dimethyl-4-oxo-3,4-dihydro-2H-pyran-6-carboxamide], for which the results for the inhibition constant (Ki) in assay [1] and in assay [3] were 31 nM and 1 nM, respectively. The same molecule had an EC50 in assay [2] of 2.6 nM.

Regarding `CCCCc1cn(C(C)(C)C)s/c1=N\C(=O)[C@]1(C)CC[C@H](C2=NCCO2)C1(C)C` [Example 217, (1R,3S)—N-[(5Z)-4-butyl-2-tert-butylisothiazol-5(2H)-ylidene]-3-(4,5-dihydro-1,3-oxazol-2-yl)-1,2,2-trimethylcyclopentanecarboxamide], the Ki worked out at 0.7 nM in assay [1] and 0.73 nM in assay [3]. The same molecule registered an EC50 in assay [2] of 0.16 nM.

Take `CCCCc1cn(C(C)(C)C)s/c1=N\C(=O)[C@@H]1CC[C@](C)(C(=O)NCC)C1(C)C` [Example 210, (1S,3R)—N^3-[(5Z)-4-butyl-2-tert-butylisothiazol-5(2H)-ylidene]-N^1-ethyl-1,2,2-trimethylcyclopentane-1,3-dicarboxamide]: the figures for the Ki in assay [1] and in assay [3] were 36 nM and 49 nM, respectively. This molecule also came in with a half-maximal effective concentration (EC50) in assay [2] of 0.19 nM.

Consider `CCCCc1cn(C(C)(C)C)s/c1=N\C(=NC#N)c1cc(C(F)(F)F)ccc1OCC` [Example 126, N-[(5Z)-4-butyl-2-tert-butylisothiazol-5(2H)-ylidene]-N′-cyano-2-ethoxy-5-(trifluoromethyl)benzenecarboximidamide], for which the figures for the Ki in assay [1] and in assay [3] were 0.6 nM and 1.2 nM, respectively. Further, in assay [2], the response was half-maximal at 0.076 nM (EC50).

Take `COc1ccc(Cl)cc1C(=O)/N=c1\sn(C(C)(C)C)cc1CCCC(F)(F)F` [Example 142, N-[(5Z)-2-tert-butyl-4-(4,4,4-trifluorobutyl)isothiazol-5(2H)-ylidene]-5-chloro-2-methoxybenzamide]: the Ki in assay [1] is 2.2 nM; in assay [3] it was 0.43 nM. The molecule further yielded an EC50 in assay [2] of 0.062 nM.

Turning to `CCCCc1cn(C(C)(C)C)s/c1=N\C(=O)C1(C)CCC(C(=O)NC)C1(C)C` (stereo not drawn) [Example 100, N^1-[(5Z)-4-butyl-2-tert-butylisothiazol-5(2H)-ylidene]-N^3,1,2,2-tetramethylcyclopentane-1,3-dicarboxamide], the values for the Ki in assay [1] and in assay [3] were 10 nM and 9.9 nM, respectively. In assay [2], this molecule returned an EC50 of 0.99 nM.

In the case of `COc1ccc(Cl)cc1C(=O)/N=c1\sn(C(C)(C)C)cc1COCC(F)(F)F` [Example 85, N-[(5Z)-2-tert-butyl-4-[(2,2,2-trifluoroethoxy)methyl]isothiazol-5(2H)-ylidene]-5-chloro-2-methoxybenzamide], the Ki is 17 nM in assay [1] and 3.5 nM in assay [3]. The same molecule showed an EC50 in assay [2] of 0.42 nM.

In the case of `COc1ccc(C(F)(F)F)cc1C(=O)/N=c1\sn(C(C)(C)C)cc1CCCCF` [Example 149, N-[(5Z)-2-tert-butyl-4-(4-fluorobutyl)isothiazol-5(2H)-ylidene]-2-methoxy-5-(trifluoromethyl)benzamide], the figures for the Ki in assay [1] and in assay [3] were 8.3 nM and 0.15 nM, respectively. In assay [2], the EC50 stood at 0.23 nM.

As to `CCCCc1cn(C(C)(C)C)s/c1=N\C(=O)c1cc(C)ccc1OC` [Example 43, N-[(5Z)-4-butyl-2-tert-butylisothiazol-5(2H)-ylidene]-2-methoxy-5-methylbenzamide], the inhibition constant Ki was found to be 18 nM in assay [1] and 2.6 nM in assay [3]. In assay [2], the EC50 was found to be 0.23 nM.
